Source: patent US20090099195A1 (ASTRAZENECA AB, priority 2007, published 2009)

target: T1, hP2X3 (human Purinergic P2X receptors subtype 3), clone B (Homo sapiens, UniProt P56373); test: hP2X3 FLIPR calcium (Fluo-4) antagonist assay, clone B; settings: Human P2X3 FLIPR Clone B IC50 (nM), RLE cells expressing hP2X3 clone B (NM_002559); agonist 500 nM α,β-methylene-ATP
T1 sequence (P56373 1-397): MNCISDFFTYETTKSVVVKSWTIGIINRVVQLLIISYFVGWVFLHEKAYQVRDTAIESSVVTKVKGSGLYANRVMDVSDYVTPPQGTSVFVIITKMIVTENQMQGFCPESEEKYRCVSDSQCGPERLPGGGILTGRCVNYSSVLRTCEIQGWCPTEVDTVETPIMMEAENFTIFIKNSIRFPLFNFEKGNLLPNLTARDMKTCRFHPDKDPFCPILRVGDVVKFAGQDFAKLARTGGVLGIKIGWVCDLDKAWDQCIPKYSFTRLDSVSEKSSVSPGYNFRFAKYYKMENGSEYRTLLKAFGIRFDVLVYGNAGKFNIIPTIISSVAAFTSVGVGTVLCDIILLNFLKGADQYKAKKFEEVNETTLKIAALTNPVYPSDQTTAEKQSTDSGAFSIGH

| IC50 [nM] | SMILES |
| --- | --- |
| 2300 | CCN1CCN(c2nc(NCC(c3ccccc3)c3ccccc3)c3c(n2)C(=O)N(C(C)C)C3)CC1 [Example 107, 4-(2,2-Diphenyl-ethylamino)-2-(4-ethyl-piperazin-1-yl)-6-isopropyl-5,6-dihydro-pyrrolo[3,4-d]pyrimidin-7-one] |
| 6300 | CC(=O)N1CCN(c2nc(NCc3ccc4ccccc4n3)c3c(n2)C(=O)N(C(C)C)C3)CC1 [Example 248, 2-(4-acetylpiperazin-1-yl)-6-isopropyl-4-(quinolin-2-ylmethylamino)-5H-pyrrolo[3,4-d]pyrimidin-7(6H)-one] |
| 620 | CCN1CCN(c2cc(C(F)(F)F)ccc2CNc2nc(N3CCN(C(C)=O)CC3)nc3c2CN(C(C)C)C3=O)CC1 [Example 223, 2-(4-acetylpiperazin-1-yl)-4-(2-(4-ethylpiperazin-1-yl)-4-(trifluoromethyl)benzylamino)-6-isopropyl-5H-pyrrolo[3,4-d]pyrimidin-7(6H)-one] |
| 100 | CC(=O)N1CCN(c2nc3c(c(N4CCCC4c4ccc5ncccc5c4)n2)CN(C(C)C)C3=O)CC1 (single isomer, unassigned) [Example 285, 4-(4-acetylpiperazin-1-yl)-8-propan-2-yl-2-(2-quinolin-6-ylpyrrolidin-1-yl)-3,5,8-triazabicyclo[4.3.0]nona-1,3,5-trien-7-one] |
| 310 | COc1ccc(C(Nc2nc(N3CCN(C(C)=O)CC3)nc3c2CN(C(C)C)C3=O)c2ccccc2)cc1 (stereo not shown) [Example 103, 2-(4-Acetyl-piperazin-1-yl)-6-isopropyl-4-{[(4-methoxy-phenyl)-phenyl-methyl]-amino}-5,6-dihydro-pyrrolo[3,4-d]pyrimidin-7-one] |
| 7600 | CC(C)N1Cc2c(NCc3cnc4ccccc4c3)nc(N3CCN4CCCC4C3)nc2C1=O (stereo in doubt) [Example 141, (R)-2-(Hexahydro-pyrrolo[1,2-a]pyrazin-2-yl)-6-isopropyl-4-[(quinolin-3-ylmethyl)-amino]-5,6-dihydro-pyrrolo[3,4-d]pyrimidin-7-one] |
| 500 | CC(=O)N1CCN(c2nc(NCc3cc4ccccc4n3C)c3c(n2)C(=O)N(C(C)C)C3)CC1 [Example 237, 2-(4-acetylpiperazin-1-yl)-6-isopropyl-4-((1-methyl-1H-indol-2-yl)methylamino)-5H-pyrrolo[3,4-d]pyrimidin-7(6H)-one] |
| 340 | CC(=O)NC1CCN(c2nc(NC(C)(C)Cc3ccc(Cl)cc3)c3c(n2)C(=O)N(C(C)C)C3)C1 (stereo not shown) [Example 62, N-[1-(4-{[2-(4-chlorophenyl)-1,1-dimethylethyl]amino}-6-isopropyl-7-oxo-6,7-dihydro-5H-pyrrolo[3,4-d]pyrimidin-2-yl)pyrrolidin-3-yl]acetamide] |
| 9200 | CC(C)N1Cc2c(NC(C)(C)Cc3ccc(Cl)cc3)nc(N3CCN(CC(=O)N(C)C)CC3)nc2C1=O [Example 63, 2-[4-(4-{[2-(4-chlorophenyl)-1,1-dimethylethyl]amino}-6-isopropyl-7-oxo-6,7-dihydro-5H-pyrrolo[3,4-d]pyrimidin-2-yl)piperazin-1-yl]-N,N-dimethylacetamide] |
| 430 | CCC(Nc1nc(N2CCN(C(C)=O)CC2)nc2c1CN(C(C)C)C2=O)c1ccc(C(F)(F)F)cc1 (stereo not shown) [Example 32, 2-(4-acetylpiperazin-1-yl)-6-isopropyl-4-({1-[4-(trifluoromethyl)phenyl]propyl}amino)-5,6-dihydro-7H-pyrrolo[3,4-d]pyrimidin-7-one] |
| 300 | CC(=O)N1CCN(c2nc3c(c(N4CCCC4Cc4cccc(Cl)c4)n2)CN(C(C)C)C3=O)CC1 (stereo not shown) [Example 48, 2-(4-acetylpiperazin-1-yl)-4-[2-(3-chlorobenzyl)pyrrolidin-1-yl]-6-isopropyl-5,6-dihydro-7H-pyrrolo[3,4-d]pyrimidin-7-one] |
| 46 | CC(=O)N1CCN(c2nc3c(c(N(Cc4cc5ccccc5cn4)CC(F)F)n2)CN(C(C)C)C3=O)CC1 [Example 256, 2-(4-acetylpiperazin-1-yl)-4-((2,2-difluoroethyl)(isoquinolin-3-ylmethyl)amino)-6-isopropyl-5H-pyrrolo[3,4-d]pyrimidin-7(6H)-one] |
| 2300 | CC(C)N1Cc2c(NC(C)(C)Cc3ccc(Cl)cc3)nc(N3CCN(C(=O)C4CC4)CC3)nc2C1=O [Example 126, 4-{[2-(4-chlorophenyl)-1,1-dimethylethyl]amino}-2-[4-(cyclopropylcarbonyl)piperazin-1-yl]-6-isopropyl-5,6-dihydro-7H-pyrrolo[3,4-d]pyrimidin-7-one] |
| 460 | CC(=O)N1CCN(c2nc(NCC3(c4ccc(Cl)cc4)CCCC3)c3c(n2)C(=O)N(C(C)C)C3)CC1 [Example 113, 2-(4-acetylpiperazin-1-yl)-4-({[1-(4-chlorophenyl)cyclopentyl]methyl}amino)-6-isopropyl-5,6-dihydro-7H-pyrrolo[3,4-d]pyrimidin-7-one] |
| 4400 | CC(C)N1Cc2c(NCC(c3ccccc3)c3ccccc3)nc(NCCCN(C)C)nc2C1=O [Example 108, 2-(3-Dimethylamino-propylamino)-4-(2,2-diphenyl-ethylamino)-6-isopropyl-5,6-dihydro-pyrrolo[3,4-d]pyrimidin-7-one] |
| 2400 | CC(=O)N1CCN(c2nc(NC(C)(C)Cc3ccc(F)cc3)c3c(n2)C(=O)N(C2CCOCC2)C3)CC1 [Example 305, 3-(4-acetylpiperazin-1-yl)-5-[[1-(4-fluorophenyl)-2-methyl-propan-2-yl]amino]-8-(oxan-4-yl)-2,4,8-triazabicyclo[4.3.0]nona-1,3,5-trien-9-one] |
| 430 | CC(=O)N1CCN(c2nc(N[C@H](C)c3ccc(OC(CF)CF)cc3)c3c(n2)C(=O)N(C(C)C)C3)CC1 [Example 250, (R)-2-(4-acetylpiperazin-1-yl)-4-(1-(4-(1,3-difluoropropan-2-yloxy)phenyl)ethylamino)-6-isopropyl-5H-pyrrolo[3,4-d]pyrimidin-7(6H)-one] |
| 3200 | CC(C)N1Cc2c(NCc3cnc4ccccc4c3)nc(N3CCNC(=O)C3)nc2C1=O [Example 206, 6-isopropyl-2-(3-oxopiperazin-1-yl)-4-(quinolin-3-ylmethylamino)-5H-pyrrolo[3,4-d]pyrimidin-7(6H)-one] |
| 1400 | COc1ccc(CC2CCCN2c2nc(N3CCN(C(C)=O)CC3)nc3c2CN(C(C)C)C3=O)cc1 (single isomer, unassigned) [Example 288, 2-(4-acetylpiperazin-1-yl)-6-isopropyl-4-[2-[(4-methoxyphenyl)methyl]pyrrolidin-1-yl]-5H-pyrrolo[3,4-d]pyrimidin-7-one] |
| 7200 | CNCCNc1nc(NCC(c2ccccc2)c2ccccc2)c2c(n1)C(=O)N(C(C)C)C2 [Example 109, 4-(2,2-Diphenyl-ethylamino)-6-isopropyl-2-(2-methylamino-ethylamino)-5,6-dihydro-pyrrolo[3,4-d]pyrimidin-7-one] |
| 96 | CC(=O)N1CCN(c2nc(N[C@H](C)c3ccc(C)c(C)c3)c3c(n2)C(=O)N(C(C)C)C3)CC1 [Example 170, (R)-2-(4-acetylpiperazin-1-yl)-4-(1-(3,4-dimethylphenyl)ethylamino)-6-isopropyl-5H-pyrrolo[3,4-d]pyrimidin-7(6H)-one] |
| 720 | CC(=O)N1CCN(c2nc(N[C@H](C)c3ccc(C(C)(C)C#N)cc3)c3c(n2)C(=O)N(C(C)C)C3)CC1 [Example 161, (R)-2-(4-(1-(2-(4-acetylpiperazin-1-yl)-6-isopropyl-7-oxo-6,7-dihydro-5H-pyrrolo[3,4-d]pyrimidin-4-ylamino)ethyl)phenyl)-2-methylpropanenitrile] |
| 6000 | CC(=O)N1CCN(c2nc3c(c(N(C)Cc4ccc5ccccc5n4)n2)CN(C(C)C)C3=O)CC1 [Example 249, 2-(4-acetylpiperazin-1-yl)-6-isopropyl-4-(methyl(quinolin-2-ylmethyl)amino)-5H-pyrrolo[3,4-d]pyrimidin-7(6H)-one] |
| 350 | CC(C)N1Cc2c(NC(C)(C)Cc3ccc(Cl)cc3)nc(N3CCNC(=O)CC3)nc2C1=O [Example 68, 4-{[2-(4-chlorophenyl)-1,1-dimethylethyl]amino}-6-isopropyl-2-(5-oxo-1,4-diazepan-1-yl)-5,6-dihydro-7H-pyrrolo[3,4-d]pyrimidin-7-one] |
| 1400 | CCN1CCN(c2nc(NC3c4cccnc4CCc4c(F)cccc43)c3c(n2)C(=O)N(C(C)C)C3)CC1 (stereo not shown) [Example 120, 2-(4-ethylpiperazin-1-yl)-4-[(9-fluoro-10,11-dihydro-5H-benzo[4,5]cyclohepta[1,2-b]pyridin-5-yl)amino]-6-isopropyl-5,6-dihydro-7H-pyrrolo[3,4-d]pyrimidin-7-one] |
| 780 | CC(C)N1Cc2c(NC(C)(C)Cc3ccc(Cl)cc3)nc(NCCN3CCCC3=O)nc2C1=O [Example 70, 4-{[2-(4-chlorophenyl)-1,1-dimethylethyl]amino}-6-isopropyl-2-{[2-(2-oxopyrrolidin-1-yl)ethyl]amino}-5,6-dihydro-7H-pyrrolo[3,4-d]pyrimidin-7-one] |
| 4100 | CC(=O)N1CCN(c2nc(NC3CCN(c4cccc(C)c4)C3)c3c(n2)C(=O)N(C(C)C)C3)CC1 (stereo not shown) [Example 224, 2-(4-acetylpiperazin-1-yl)-6-isopropyl-4-(1-m-tolylpyrrolidin-3-ylamino)-5H-pyrrolo[3,4-d]pyrimidin-7(6H)-one] |
| 240 | CC(=O)N1CCN(c2nc3c(c(N4CCCC4Cc4ccccc4)n2)CN(C(C)C)C3=O)CC1 (stereo not shown) [Example 54, 2-(4-acetylpiperazin-1-yl)-4-(2-benzylpyrrolidin-1-yl)-6-isopropyl-5,6-dihydro-7H-pyrrolo[3,4-d]pyrimidin-7-one] |
